From patent US7893074B2, “2, 4-pyrimidinediamines useful in the treatment of neoplastic diseases, inflammatory and immune system disorders” (Novartis AG, priority 2003, dated 2011)
pIC50: −log10 of the molar value. Like-named read-outs stand apart in the source and are kept apart here.

Tests used:
[1] = system: Mouse mammary carcinoma 4T1 cells; experiment: Anchorage-independent tumor cell growth assay; assay type: cell-based; conditions: Mus musculus, 4T1
Experimental: Cells are cultured for 2 h and inhibitors are added at various concentrations in a final concentration of 0.1% DMSO. After 48 h, cell growth is assayed with the cell counting kit-8 (Wako Pure Chemical), which uses a water soluble tetrazolium salt WST8. Twenty μL of the reagent is added into each well and cells are further cultured for 2 h. The optical density is measured at 450 nm.

[2] = target: Focal Adhesion Kinase (FAK) (Homo sapiens, UniProt Q05397); experiment: FAK assay system (Focal Adhesion Kinase inhibition); assay type: biochemical
FAK = FAK (Mus musculus, UniProt P34152); experiment: Phos IC50 (phosphorylation); assay type: cell-based
IGF-IR = IGF-IR (Homo sapiens, UniProt P08069); experiment: Cellular Capture ELISA of IGF-I induced autophosphorylation of the IGF-IR; assay type: cell-based; conditions: read-out: IGF-1R IC50
Experimental: In this assay the activity of the compounds of the invention against Insulin-like growth factor I (IGF-I) induced autophosphorylation of the IGF-IR is determined.

Focal Adhesion Kinase (FAK), sequence (Q05397 384-706): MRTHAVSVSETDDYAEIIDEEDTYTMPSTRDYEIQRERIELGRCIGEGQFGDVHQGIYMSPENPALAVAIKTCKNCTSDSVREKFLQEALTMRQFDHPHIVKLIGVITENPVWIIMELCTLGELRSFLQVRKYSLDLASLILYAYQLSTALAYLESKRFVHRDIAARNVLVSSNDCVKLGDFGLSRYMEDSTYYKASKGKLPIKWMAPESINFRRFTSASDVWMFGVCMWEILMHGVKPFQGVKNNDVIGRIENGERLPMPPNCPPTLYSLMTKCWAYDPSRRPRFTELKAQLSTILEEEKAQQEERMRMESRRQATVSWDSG
FAK, sequence (P34152 2-1052): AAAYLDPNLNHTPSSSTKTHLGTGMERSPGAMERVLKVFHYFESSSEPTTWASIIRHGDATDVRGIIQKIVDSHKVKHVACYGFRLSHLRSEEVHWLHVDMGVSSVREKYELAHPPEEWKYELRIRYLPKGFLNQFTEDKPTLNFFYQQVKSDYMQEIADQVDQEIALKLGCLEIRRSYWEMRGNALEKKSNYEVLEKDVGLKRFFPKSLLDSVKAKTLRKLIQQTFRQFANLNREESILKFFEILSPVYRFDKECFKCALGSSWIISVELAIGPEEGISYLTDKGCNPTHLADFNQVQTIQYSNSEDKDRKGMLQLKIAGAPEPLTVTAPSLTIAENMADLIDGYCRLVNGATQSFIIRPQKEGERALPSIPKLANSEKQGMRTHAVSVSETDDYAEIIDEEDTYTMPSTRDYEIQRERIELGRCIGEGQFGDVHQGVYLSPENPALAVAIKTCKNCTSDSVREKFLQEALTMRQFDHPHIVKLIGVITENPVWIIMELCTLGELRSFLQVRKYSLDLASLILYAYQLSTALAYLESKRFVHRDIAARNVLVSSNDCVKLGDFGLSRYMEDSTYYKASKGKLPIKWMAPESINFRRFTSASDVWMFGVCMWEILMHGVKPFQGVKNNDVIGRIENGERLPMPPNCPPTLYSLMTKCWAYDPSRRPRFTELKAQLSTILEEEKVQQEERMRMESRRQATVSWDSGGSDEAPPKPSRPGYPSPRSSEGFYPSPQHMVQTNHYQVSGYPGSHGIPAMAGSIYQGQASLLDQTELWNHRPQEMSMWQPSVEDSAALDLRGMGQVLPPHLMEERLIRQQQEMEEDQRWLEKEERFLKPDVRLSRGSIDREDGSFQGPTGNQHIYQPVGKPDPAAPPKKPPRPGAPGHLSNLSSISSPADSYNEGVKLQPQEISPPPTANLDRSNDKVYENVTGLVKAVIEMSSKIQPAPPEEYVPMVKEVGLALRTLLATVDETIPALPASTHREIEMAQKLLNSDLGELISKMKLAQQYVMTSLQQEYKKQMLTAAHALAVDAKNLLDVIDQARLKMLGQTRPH
IGF-IR, sequence (P08069 31-1367): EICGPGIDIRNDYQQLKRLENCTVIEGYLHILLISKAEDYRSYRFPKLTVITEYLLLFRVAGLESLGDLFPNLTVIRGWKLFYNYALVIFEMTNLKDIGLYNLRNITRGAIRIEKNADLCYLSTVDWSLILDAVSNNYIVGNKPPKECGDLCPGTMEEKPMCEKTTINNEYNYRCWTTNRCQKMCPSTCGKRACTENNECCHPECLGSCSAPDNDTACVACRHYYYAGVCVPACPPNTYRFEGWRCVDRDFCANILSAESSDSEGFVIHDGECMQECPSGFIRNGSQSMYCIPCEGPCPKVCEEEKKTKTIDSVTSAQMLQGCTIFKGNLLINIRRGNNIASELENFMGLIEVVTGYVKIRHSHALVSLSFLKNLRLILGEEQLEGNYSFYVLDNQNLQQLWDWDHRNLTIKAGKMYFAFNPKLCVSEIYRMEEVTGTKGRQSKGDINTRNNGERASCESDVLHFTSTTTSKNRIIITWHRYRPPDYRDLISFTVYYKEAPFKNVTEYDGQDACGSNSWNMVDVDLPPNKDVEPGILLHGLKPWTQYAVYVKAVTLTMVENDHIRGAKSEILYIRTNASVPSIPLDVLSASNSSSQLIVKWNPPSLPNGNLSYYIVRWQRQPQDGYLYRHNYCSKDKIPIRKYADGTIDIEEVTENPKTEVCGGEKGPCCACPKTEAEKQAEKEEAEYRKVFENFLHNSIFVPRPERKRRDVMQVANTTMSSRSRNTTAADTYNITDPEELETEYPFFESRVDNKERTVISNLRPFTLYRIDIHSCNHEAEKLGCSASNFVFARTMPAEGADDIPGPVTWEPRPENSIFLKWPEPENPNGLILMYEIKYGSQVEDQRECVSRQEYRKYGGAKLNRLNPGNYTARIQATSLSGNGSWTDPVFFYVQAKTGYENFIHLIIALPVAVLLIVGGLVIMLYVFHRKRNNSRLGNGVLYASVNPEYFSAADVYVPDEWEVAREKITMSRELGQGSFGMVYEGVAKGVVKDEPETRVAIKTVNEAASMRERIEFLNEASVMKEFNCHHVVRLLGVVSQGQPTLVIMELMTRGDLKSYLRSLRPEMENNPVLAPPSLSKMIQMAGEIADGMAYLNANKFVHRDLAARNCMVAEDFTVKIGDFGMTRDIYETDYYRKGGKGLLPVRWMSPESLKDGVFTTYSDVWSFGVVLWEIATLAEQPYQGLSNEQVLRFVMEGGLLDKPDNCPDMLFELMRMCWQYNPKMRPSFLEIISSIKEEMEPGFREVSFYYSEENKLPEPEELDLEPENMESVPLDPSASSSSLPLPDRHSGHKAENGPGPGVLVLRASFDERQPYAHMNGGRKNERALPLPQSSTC

Row | SMILES | pIC50 [1] | pIC50 ([2]; read-out: FAK IC50) | pIC50 (FAK) | pIC50 (IGF-IR) | pIC50 ([2]; FAK IC50) | pIC50 ([2]; FAK assay system, read-out: FAK inhibition IC50)
1 | CNS(=O)(=O)c1ccccc1Nc1nc(Nc2ccc(C)cc2OC)ncc1Br [Example 3-5] | 5.70 | 7.68 | 6.77 | < 5.00 |  | 
2 | CNS(=O)(=O)c1ccccc1Nc1nc(Nc2cccc3[nH]ccc23)ncc1Br [Example 3-11] | 6.52 | 8.05 | 7.40 | 6.70 |  | 
3 | CNS(=O)(=O)c1ccccc1Nc1nc(Nc2cccc3cn[nH]c23)ncc1Br [Example 3-13] | 6.22 |  |  | 6.13 | 7.24 | 
4 | CNS(=O)(=O)c1ccccc1Nc1nc(Nc2cc(OC)ccc2OC)ncc1Br [Example 3-15] | 6.10 | 8.15 | 7.70 | 6.03 |  | 
5 | CNS(=O)(=O)c1ccccc1Nc1nc(Nc2cc(OC)c(OC)cc2C)ncc1Br [Example 3-17] | 6.70 | 8.55 | 7.52 | > 7.10 |  | 8.30 to 9.00
6 | CNS(=O)(=O)c1ccccc1Nc1nc(Nc2ccc(N3CCOCC3)cc2OC)ncc1Br [Example 3-19, 2-[5-Bromo-2-(2-methoxy-4-morpholin-4-yl-phenylamino)-pyrimidin-4-ylamino]-N-methyl-benzenesulfonamide] | 6.10 | 8.17 | 6.46 | 7.00 |  | 
7 | CNS(=O)(=O)c1ccccc1Nc1nc(Nc2cc(-c3ccc(OC)cc3)ccc2C)ncc1Br [Example 3-25] | 6.52 | 7.66 | 6.52 | 6.09 |  | 
8 | CNS(=O)(=O)c1ccccc1Nc1nc(Nc2ccc(N3CCC(C(N)=O)CC3)cc2OC)ncc1Br [Example 3-43] | 6.96 | 8.25 | 6.70 | 6.57 |  | 
9 | CNS(=O)(=O)c1ccccc1Nc1nc(Nc2ccc(N3CCS(=O)(=O)CC3)cc2OC)ncc1Br [Example 3-44] | 7.05 | 7.96 | 7.30 | 7.05 |  | 
10 | CNS(=O)(=O)c1ccccc1Nc1nc(Nc2ccc(-n3ccnc3)cc2OC)ncc1Br [Example 3-48] | 6.52 | 8.15 | 7.15 | 6.68 |  | 
11 | CNS(=O)(=O)c1ccccc1Nc1nc(Nc2ccc(OC)nc2OC)ncc1Br [Example 3-50] | 6.00 | 7.89 | 6.92 | 5.92 |  | 
12 | CNS(=O)(=O)c1ccccc1Nc1nc(Nc2cc(-c3ccncc3)ccc2C)ncc1Br [Example 3-54] |  | 9.05 | 8.00 | > 7.10 |  | 
13 | CCOc1cc(N2CCOCC2)ccc1Nc1ncc(Br)c(Nc2ccccc2S(=O)(=O)NC)n1 [Example 3-58] | 6.52 | 7.68 | 7.10 | 6.85 |  | 
14 | CNS(=O)(=O)c1ccccc1Nc1nc(Nc2cc(-c3ccncc3)ccc2OC)ncc1Br [Example 3-65] | 7.00 | 8.10 | 7.10 | 6.82 |  | 
15 | CNS(=O)(=O)c1ccccc1Nc1nc(Nc2cc(-c3cccnc3)ccc2OC)ncc1Br [Example 3-66] | 7.15 | 9.00 | 7.10 | 6.60 |  | 
16 | CNS(=O)(=O)c1ccccc1Nc1nc(Nc2cc(OCCCN3CCOCC3)ccc2OC)ncc1Br [Example 3-73] | 6.54 | 7.96 | 7.52 | 5.79 |  | 
17 | CNS(=O)(=O)c1ccccc1Nc1nc(Nc2ccc(F)cc2OC)ncc1Br [Example 3-80] | 6.35 | 7.92 | 6.66 | 5.30 |  | 
18 | CNS(=O)(=O)c1ccccc1Nc1nc(Nc2cc(F)ccc2OC)ncc1Br [Example 3-81] | 6.01 | 7.68 | 6.28 | < 5.00 |  | 
19 | CNS(=O)(=O)c1ccccc1Nc1nc(Nc2ccc(-n3ccnc3C)cc2OC)ncc1Br [Example 3-83] | 6.49 |  |  | 6.17 | 7.70 | 
20 | CNC(=O)c1ccccc1Nc1nc(Nc2ccc(N3CCC(N4CCCCC4)CC3)cc2OC)ncc1Cl [Example 7-1] | 6.27 | 8.33 | 6.22 | 6.72 |  | 
21 | CNC(=O)c1ccccc1Nc1nc(Nc2ccc(N3CCN(C)CC3)cc2OC)ncc1Cl [Example 7-3] | 6.41 | 8.54 | 6.52 | 6.57 |  | 
22 | CNC(=O)c1ccccc1Nc1nc(Nc2ccc(OC3CCN(C)CC3)cc2OC)ncc1Cl [Example 7-5] | 6.70 | 8.21 | 6.52 | 6.60 |  | 
23 | CNC(=O)c1ccccc1Nc1nc(Nc2ccc(N3CCC(N(C)C)C3)cc2OC)ncc1Cl (stereo not drawn) [Example 7-11] | 5.92 | 8.60 | 6.22 | 6.11 |  | 
24 | CNC(=O)c1ccccc1Nc1nc(Nc2ccc(N3CCC(N4CCN(C)CC4)CC3)cc2OC)ncc1Cl [Example 7-14] | 6.44 | 8.12 | 6.52 | 6.48 |  | 

Row | SMILES | pIC50 [1] | pIC50 ([2]; read-out: FAK IC50) | pIC50 (FAK) | pIC50 (IGF-IR) | pIC50 ([2]; FAK IC50) | pIC50 ([2]; FAK assay system, read-out: FAK inhibition IC50)
25 | CCNC1CCN(c2ccc(Nc3ncc(Cl)c(Nc4ccccc4S(=O)(=O)NC(C)C)n3)c(OC)c2)C1 (stereo not drawn) [Example 19-2] | 6.42 |  |  | 6.04 | 8.80 | 
26 | COc1cc(OCC2CCCN(C)C2)ccc1Nc1ncc(Cl)c(Nc2ccccc2S(=O)(=O)NC(C)C)n1 (stereo not drawn) [Example 19-3] | 7.05 |  |  | 6.19 | > 9.00 | 
27 | COc1cc(N2CCC(N(C)C(C)=O)C2)ccc1Nc1ncc(Cl)c(Nc2ccccc2S(=O)(=O)NC(C)C)n1 (stereo not drawn) [Example 19-14] | 5.95 |  |  | 6.36 | 8.59 | 
28 | CNS(=O)(=O)c1ccccc1Nc1nc(Nc2cc(N3CCC(N(C)C)C3)ccc2OC)ncc1Cl (stereo not drawn) [Example 20-20] |  | 8.51 |  | 7.00 |  | 
29 | CCCS(=O)(=O)c1ccccc1Nc1nc(Nc2ccc(N3CCC(C(N)=O)CC3)cc2OC)ncc1Cl [Example 26-5] | 6.64 |  |  | 5.82 | 8.68 | 
30 | COc1cc(N2CCOCC2)ccc1Nc1ncc(Cl)c(Nc2ccccc2S(=O)(=O)C2CC2)n1 [Example 30-1] | 6.05 | 7.66 | 6.70 |  |  | 
31 | COc1cc(N2CCN(C(C)=O)CC2)ccc1Nc1ncc(Cl)c(Nc2ccccc2S(=O)(=O)C2CC2)n1 [Example 30-2] | 6.33 | 7.92 | 6.70 |  |  | 
32 | COc1cc(N2CCCC(C(N)=O)C2)ccc1Nc1ncc(Cl)c(Nc2ccccc2S(=O)(=O)C2CC2)n1 (stereo not drawn) [Example 30-3] | 6.17 | 7.72 | 6.30 |  |  | 
33 | COc1cc(-n2cncn2)ccc1Nc1ncc(Cl)c(Nc2ccccc2S(=O)(=O)C2CC2)n1 [Example 30-4] | 6.00 | 7.60 | 6.52 |  |  | 
34 | COc1cc(CN2CCN(C)CC2)ccc1Nc1ncc(Cl)c(Nc2ccccc2S(=O)(=O)C2CC2)n1 [Example 30-5] | 6.54 | 8.07 | 5.70 |  |  | 
35 | COc1cc(N2CCC[C@@H](C(N)=O)C2)ccc1Nc1ncc(Cl)c(Nc2ccccc2S(=O)(=O)C2CC2)n1 [Example 30-6] | 5.99 | 7.82 | 6.00 |  |  | 
36 | COc1cc(N2CCC(N3CCN(C)CC3)CC2)ccc1Nc1ncc(Cl)c(Nc2ccccc2S(=O)(=O)C2CC2)n1 [Example 30-7] | 6.33 | 8.06 | 6.22 |  |  | 
37 | COc1cc(F)ccc1Nc1ncc(Cl)c(Nc2ccccc2S(C)(=O)=O)n1 [Example 31-1] | 5.80 | 7.52 | < 5.00 |  |  | 
38 | COc1cc(N2CCOCC2)ccc1Nc1ncc(Cl)c(Nc2ccccc2S(C)(=O)=O)n1 [Example 31-2] | 6.54 |  |  | 6.38 | 7.51 | 
39 | COc1cc(N2CCN(C(C)=O)CC2)ccc1Nc1ncc(Cl)c(Nc2ccccc2S(=O)(=O)C2CCCC2)n1 [Example 33-1] | 6.60 | 8.60 | 7.10 |  |  | 
40 | COc1cc(N2CCOCC2)ccc1Nc1ncc(Cl)c(Nc2ccccc2S(=O)(=O)C2CCCCC2)n1 [Example 34-2] | 5.93 | 7.96 | 7.10 |  |  | 
41 | CCCCCS(=O)(=O)c1ccccc1Nc1nc(Nc2ccc(N3CCOCC3)cc2OC)ncc1Cl [Example 34-3] | 5.65 | 7.48 | 6.72 |  |  | 
42 | COc1cc(N2CCOCC2)ccc1Nc1ncc(Cl)c(Nc2ccccc2S(=O)(=O)CCC(C)C)n1 [Example 34-4] | 5.91 | 7.89 | < 5.00 |  |  | 
43 | COc1cc(N2CCOCC2)ccc1Nc1ncc(Cl)c(Nc2ccccc2S(=O)(=O)Cc2ccccc2)n1 [Example 34-5] | 5.29 | 7.29 | 6.44 |  |  | 
44 | COc1cc(N2CCOCC2)ccc1Nc1ncc(Cl)c(Nc2ccccc2S(=O)(=O)c2ccccc2)n1 [Example 34-6] | 5.52 | 7.85 | < 5.00 |  |  | 
45 | CCC[S+]([O-])c1ccccc1Nc1nc(Nc2ccc(F)cc2OC)ncc1Cl (stereo not drawn) [Example 34-7] | 5.57 | 7.57 | < 5.00 |  |  | 
46 | CCCS(=O)(=O)c1cc(N2CCN(C)CC2)ccc1Nc1nc(Nc2ccc(F)cc2OC)ncc1Cl [Example 34-8] | 5.72 | 8.06 | < 5.00 |  |  | 
47 | CNC(=O)c1cc(N2CCN(C)CC2)ccc1Nc1nc(Nc2ccc(N3CCOCC3)cc2OC)ncc1Cl [Example 35-1] | 5.84 | 8.17 | < 5.00 |  |  | 
48 | CNC(=O)c1cc(N2CCN(C)CC2)ccc1Nc1nc(Nc2cccc3c2ccn3C)ncc1Cl [Example 35-2] | 6.64 | 8.21 | 6.15 |  |  | 
